Where two headings read alike, the source gives them in different places.
Experiments:
[1] = Chemical stability in water (10 mM) at 60 °C by HPLC; assay type: physicochemical; details: for Chemical stability, Initial (%): HPLC AUC, 0 h set to 100%; for Chemical stability, 24 h / Chemical stability, 48 h / Chemical stability, 76 h / Chemical stability, 164 h / Chemical stability, 330 h: storage at 60 °C, HPLC
Description: For this purpose, high-performance liquid chromatography (HPLC) was employed to measure any changes in these species upon storage at 60 °C (Table 1).

BACE-1 = target: T1, BACE-1 (Homo sapiens, UniProt P56817); experiment: BACE-1 FRET inhibition assay; assay type: biochemical
T1 construct: purchased PanVera Corp. / Thermo Fisher Scientific P2985
Description: A BACE-1 inhibition assay was performed using a β-Secretase FRET kit (BACE-1, Thermo Fisher Scientific, San Diego, CA, USA) following the manufacturer’s instructions. […] In black 96-well microplates, 10 µL of the BACE-1 substrate was added to the diluted samples. The reaction was initiated by adding 10 µL of 3× BACE-1 enzyme to each well. The plates were incubated for 60 min at RT in the dark. After incubation, the reaction was stopped by adding 10 µL of 2.5 mM sodium acetate to each well. […] The IC50 value was determined by plotting the relative fluorescence units per hour (RFU/h) against the logarithmic inhibitor concentrations. All experiments were conducted in triplicate.

[2] = system: phosphorylated tau (P-tau); experiment: P-tau level ELISA in SH-SY5Y cells; details: Homo sapiens, 24 h, read-out: P-tau inhibition
Description: SH-SY5Y cells were grown in a complete growth medium comprising Dulbecco’s Modified Eagle Medium (DMEM) supplemented with 10% fetal bovine serum (FBS) and 1% penicillin/streptomycin. For treatment, adherent SH-SY5Y cells were plated in 96-well plates at a density of 2 × 10^6 cells per well. Levosimendan (Sigma, St. Louis, MO, USA) was used as an inhibitor to verify the effect on tau inhibition. Upon treatment with 20 μM of each substance, the cells were cultured for 24 h. The supernatant was then collected and used in subsequent ELISA assays.
The tau levels were assessed using a Human Tau ELISA kit (Abcam, Cambridge, UK). After treatment, the supernatant was diluted five times. The diluted supernatant, capture antibody, and detection antibody were mixed in a 2:1:1 ratio and incubated for 1 h. The wells were then washed three times with a wash buffer. After removing the buffer, 100 µL of 3,3′,5,5′-tetramethylbenzidine developer was added and incubated for 10 min, followed by the addition of 100 µL stop solution. The optical density was measured at 450 nm. Data analysis was performed by calculating the mean and standard deviation using GraphPad Prism 8 (GraphPad, San Diego, CA, USA).

[3] = DPPH radical scavenging assay; assay type: biochemical; details: methanol, 30 min, RT, dark
Description: The mixture was then kept in the dark at RT for 30 min. Afterward, the absorbance was measured at 540 nm.

NLRP3 = NLRP3 ELISA in LPS-induced RAW264.7 cells; assay type: cell-based, murine; details: 25 µM (method: 20 µM), LPS 0.5 µg/mL, 24 h
Text: The induced cytokines further contribute to AD pathology by hyperphosphorylation of the tau protein [19]. Additionally, the activation of NLRP3 has been implicated in the pathogenesis of AD [20, 21], and this inflammatory response fosters the generation of Aβ and tau, ultimately contributing to disease progression. Thus, to determine the anti-inflammatory activities of the prepared derivatives, we measured the inhibition of nitrogen oxide (NO) and NLRP3 in LPS-induced RAW264.7 cells. The active concentration for activity assessment was established as 25 µM, at which cell viability had been previously confirmed.
RAW 264.7 macrophages were seeded at a density of 5 × 10^5 cells/well in 96-well plates and treated with 20 µM of RA-Hyd-Me, RA-Hyd-Me-tol, RA-Benzo, and RA-Sali for 1 h and then stimulated with 0.5 μg/mL LPS for 24 h. Culture supernatant levels of NOD-like receptor pyrine domain containing-3 (NLRP3) were determined using a commercially available ELISA kit (Lsbio, Seattle, WA, USA) and following the instructions of the manufacturer. The absorbance of the plate was read at a wavelength of 450 nm. NLRP3 was determined from a standard curve. The concentrations were expressed as ng/mL. To obtain statistical significance, all experiments were carried out in duplicate.

[4] = target: T2, acetylcholinesterase (AChE) (Electrophorus electricus, UniProt O42275); experiment: biochemical
T2 construct: purchased Sigma-Aldrich C3389

[5] = Stability of Ramalin in water vs deoxygenated water (10 mM, 48 h, 25 °C); assay type: physicochemical
Text: This is evidenced by the increased stability when dissolved in deoxygenated water compared to water containing dissolved oxygen. […] We attempted modifications by introducing a methyl group into phenyl hydrazine to prevent conversion into the azo form or by linking the phenyl group to a benzophenone structure to block electron flow and mitigate oxidation, thereby enhancing stability.

[6] = FRET kit, 60 min, RT, triplicate, read-out: BACE-1 IC50

T1 sequence (P56817 46-501): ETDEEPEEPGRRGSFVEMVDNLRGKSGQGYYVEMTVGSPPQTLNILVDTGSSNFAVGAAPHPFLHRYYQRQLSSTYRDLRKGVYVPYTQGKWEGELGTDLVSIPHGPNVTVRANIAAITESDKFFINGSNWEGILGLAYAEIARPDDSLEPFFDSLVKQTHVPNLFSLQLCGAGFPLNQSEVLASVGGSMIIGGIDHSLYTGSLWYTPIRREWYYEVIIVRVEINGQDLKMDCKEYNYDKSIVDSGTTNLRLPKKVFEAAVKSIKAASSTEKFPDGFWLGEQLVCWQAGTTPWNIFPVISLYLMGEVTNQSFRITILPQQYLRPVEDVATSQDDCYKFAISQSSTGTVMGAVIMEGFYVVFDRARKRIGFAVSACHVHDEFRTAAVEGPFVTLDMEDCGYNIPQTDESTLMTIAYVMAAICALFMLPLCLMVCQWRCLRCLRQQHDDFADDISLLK
T2 sequence (O42275 24-633): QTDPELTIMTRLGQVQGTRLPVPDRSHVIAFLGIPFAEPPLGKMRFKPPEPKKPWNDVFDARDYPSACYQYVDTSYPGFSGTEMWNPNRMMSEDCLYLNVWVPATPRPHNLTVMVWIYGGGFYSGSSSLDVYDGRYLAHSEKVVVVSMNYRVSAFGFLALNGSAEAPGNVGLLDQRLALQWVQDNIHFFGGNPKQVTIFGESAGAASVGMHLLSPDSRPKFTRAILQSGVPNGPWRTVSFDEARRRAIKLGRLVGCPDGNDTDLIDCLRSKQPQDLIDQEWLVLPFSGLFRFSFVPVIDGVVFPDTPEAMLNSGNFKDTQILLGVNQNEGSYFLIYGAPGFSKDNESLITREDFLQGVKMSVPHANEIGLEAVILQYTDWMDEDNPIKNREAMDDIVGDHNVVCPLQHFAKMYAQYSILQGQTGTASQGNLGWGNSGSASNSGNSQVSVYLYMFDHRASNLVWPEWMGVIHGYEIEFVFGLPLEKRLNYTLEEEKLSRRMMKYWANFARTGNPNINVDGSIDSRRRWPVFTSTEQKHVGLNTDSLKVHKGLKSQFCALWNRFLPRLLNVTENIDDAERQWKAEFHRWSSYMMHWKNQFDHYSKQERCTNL

Row | SMILES | Chemical stability, Initial (%) [1] | Chemical stability, 24 h [1] | Chemical stability, 48 h [1] [%] | Chemical stability, 76 h [1] [%] | Chemical stability, 164 h [1] [%] | Chemical stability, 330 h [1] [%] | IC50 (BACE-1; [6]) [µM] | inhibition at 20 µM [2] [%] | IC50 [3] [µM] | IC50 (BACE-1) [µM] | NLRP3 inhibitory activity (NLRP3) | inhibition at 50 µM [4] [%] | Ramalin remained in deoxygenated water ([5]; deoxygenated water) [%] | Ramalin remained in regular water ([5]; regular water)
1 | Cl.N[C@@H](CCC(=O)NNC(=O)c1ccccc1)C(=O)O [RA-Benzo, N^5-benzamido-L-glutamine hydrochloride] | 100% | 97.2% | 94.4 | 91.5 | 82.5 | 68.0 | 144 ± 87.1 | 10 to 15 | – | – | – | – | – | –
2 | CN(NC(=O)CC[C@H](N)C(=O)O)c1ccccc1 [RA-Hyd-Me, N^5-(methyl(phenyl)amino)-L-glutamine] | 100% | 97.5% | 94.5 | 91.1 | 80.3 | 65.4 | – | 10 to 15 | 14.4 | 15.5 ± 5.8 | – | – | – | –
3 | Cc1cccc(N(C)NC(=O)CC[C@H](N)C(=O)O)c1 [RA-Hyd-Me-Tol, N^5-(methyl(m-tolyl)amino)-L-glutamine] | 100% | 97.5% | 94.6 | 91.0 | 80.0 | 63.4 | 22.5 ± 1.76 | 10 to 15 | 12.4 | – | – | – | – | –
4 | Cl.N[C@@H](CCC(=O)NNC(=O)c1ccccc1O)C(=O)O [RA-Sali, N^5-(2-hydroxybenzamido)-L-glutamine hydrochloride] | 100% | 99.6% | 96.7 | 93.3 | 82.6 | 69.1 | 8.44 ± 5.16 | ~40 | – | – | ~ 25% | 7.8 | – | –
5 | N[C@@H](CCC(=O)NNc1ccccc1O)C(=O)O [Ramalin, reference compound] | 100% ^1 | 35.1% ^2 | 17.1 | 7.6 | – | – | – | – | – | – | – | – | 92 | about 53%

Source: article PMC11597085 (Molecules, 2024)
